Measured values as given in patent US20230373952A1, “LACTAM COMPOUNDS AS Kv1.3 POTASSIUM SHAKER CHANNEL BLOCKERS” (D.E. Shaw Research, LLC, priority 2020, published 2023).
Where two headings read alike, the source gives them in different places.

Key:
[1] = target: hERG channel (Homo sapiens, UniProt Q12809); experiment: cell-based
Procedure: This assay is used to evaluate the disclosed compounds' inhibition activities against the hERG channel.
CHO-K1 cells stably expressing hERG were grown in Ham's F-12 Medium with glutamine containing 10% heat-inactivated FBS, 1% penicillin/streptomycin, hygromycin (100 μg/ml) and G418 (100 μg/ml). Cells were grown in culture flasks at 37° C. in a 5% CO2-humidified incubator.
All compounds were dissolved in DMSO at 30 mM. Compound stock solutions were freshly diluted with external solution to concentrations of 30 nM, 100 nM, 300 nM, 1 μM, 3 μM, 10 μM, 30 μM and 100 μM. The highest content of DMSO (0.3%) was present in 100 μM.
The voltage protocol (see Table I) was designed to simulate voltage changes during a cardiac action potential with a 300 ms depolarization to +20 mV (analogous to the plateau phase of the cardiac action potential), a repolarization for 300 ms to −50 mV (inducing a tail current) and a final step to the holding potential of −80 mV. The pulse frequency was 0.3 Hz. Control (compound-free) and compound pulse trains for each compound concentration applied contained 70 pulses.
Whole-cell current recordings and compound application were enabled by means of an automated patch clamp platform Patchliner (Nanion). EPC 10 patch clamp amplifier (HEKA) along with Patchmaster software (HEKA Elektronik Dr. Schulze GmbH) was used for data acquisition. Data were sampled at 10 kHz without filtering. Increasing compound concentrations were applied consecutively to the same cell without washouts in between.
AUC and PEAK values were obtained with Patchmaster (HEKA Elektronik Dr. Schulze GmbH). To determine IC50 the last single pulse in the pulse train corresponding to a given compound concentration was used. Obtained AUC and PEAK values in the presence of compound were normalized to control values in the absence of compound.

[2] = target: T1, Kv1.3 potassium channel (Homo sapiens, UniProt P22001); experiment: Kv1.3 potassium channel blocker activity, automated whole-cell patch clamp (Patchliner); type: cell-based; details: whole-cell current inhibition, Hill fit
T1 construct: expressed in transfected cells
T1 sequence (P22001 whole entry): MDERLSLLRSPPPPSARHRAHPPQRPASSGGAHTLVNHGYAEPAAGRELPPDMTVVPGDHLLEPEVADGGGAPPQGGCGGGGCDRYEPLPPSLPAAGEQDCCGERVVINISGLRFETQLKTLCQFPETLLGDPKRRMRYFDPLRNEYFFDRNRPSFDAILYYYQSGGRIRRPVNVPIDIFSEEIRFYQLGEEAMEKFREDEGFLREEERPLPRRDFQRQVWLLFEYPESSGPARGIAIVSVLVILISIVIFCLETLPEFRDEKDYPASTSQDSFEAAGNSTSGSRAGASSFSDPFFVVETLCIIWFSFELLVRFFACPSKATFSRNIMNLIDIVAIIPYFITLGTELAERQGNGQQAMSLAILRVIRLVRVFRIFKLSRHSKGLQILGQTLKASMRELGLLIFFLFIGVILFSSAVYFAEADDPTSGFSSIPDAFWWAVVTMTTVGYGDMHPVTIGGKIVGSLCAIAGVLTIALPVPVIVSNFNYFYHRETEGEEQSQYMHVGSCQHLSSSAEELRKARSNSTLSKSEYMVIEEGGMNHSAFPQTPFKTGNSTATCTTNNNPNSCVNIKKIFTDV
Procedure: CHO-K1 cells stably expressing Kv1.3 were grown in DMEM containing 10% heat-inactivated FBS, 1 mM sodium pyruvate, 2 mM L-glutamine and G418 (500 μg/ml).
The currents were evoked by applying 100 ms depolarizing pulses from −90 mV (holding potential) to +40 mV were applied with 0.1 Hz frequency. […] 10-second breaks were used between pulse trains (see Table H below).
Passive leak currents were subtracted online using a P/4 procedure (HEKA Elektronik Dr. Schulze GmbH). […] Total compound incubation time before the next pulse train was not longer than 10 seconds. Peak current inhibition was observed during compound equilibration.

[3] = CHO-K1 cells stably expressing Kv1.3, read-out: Kv1.3 IC50

Chain of hERG channel (Q12809 whole entry): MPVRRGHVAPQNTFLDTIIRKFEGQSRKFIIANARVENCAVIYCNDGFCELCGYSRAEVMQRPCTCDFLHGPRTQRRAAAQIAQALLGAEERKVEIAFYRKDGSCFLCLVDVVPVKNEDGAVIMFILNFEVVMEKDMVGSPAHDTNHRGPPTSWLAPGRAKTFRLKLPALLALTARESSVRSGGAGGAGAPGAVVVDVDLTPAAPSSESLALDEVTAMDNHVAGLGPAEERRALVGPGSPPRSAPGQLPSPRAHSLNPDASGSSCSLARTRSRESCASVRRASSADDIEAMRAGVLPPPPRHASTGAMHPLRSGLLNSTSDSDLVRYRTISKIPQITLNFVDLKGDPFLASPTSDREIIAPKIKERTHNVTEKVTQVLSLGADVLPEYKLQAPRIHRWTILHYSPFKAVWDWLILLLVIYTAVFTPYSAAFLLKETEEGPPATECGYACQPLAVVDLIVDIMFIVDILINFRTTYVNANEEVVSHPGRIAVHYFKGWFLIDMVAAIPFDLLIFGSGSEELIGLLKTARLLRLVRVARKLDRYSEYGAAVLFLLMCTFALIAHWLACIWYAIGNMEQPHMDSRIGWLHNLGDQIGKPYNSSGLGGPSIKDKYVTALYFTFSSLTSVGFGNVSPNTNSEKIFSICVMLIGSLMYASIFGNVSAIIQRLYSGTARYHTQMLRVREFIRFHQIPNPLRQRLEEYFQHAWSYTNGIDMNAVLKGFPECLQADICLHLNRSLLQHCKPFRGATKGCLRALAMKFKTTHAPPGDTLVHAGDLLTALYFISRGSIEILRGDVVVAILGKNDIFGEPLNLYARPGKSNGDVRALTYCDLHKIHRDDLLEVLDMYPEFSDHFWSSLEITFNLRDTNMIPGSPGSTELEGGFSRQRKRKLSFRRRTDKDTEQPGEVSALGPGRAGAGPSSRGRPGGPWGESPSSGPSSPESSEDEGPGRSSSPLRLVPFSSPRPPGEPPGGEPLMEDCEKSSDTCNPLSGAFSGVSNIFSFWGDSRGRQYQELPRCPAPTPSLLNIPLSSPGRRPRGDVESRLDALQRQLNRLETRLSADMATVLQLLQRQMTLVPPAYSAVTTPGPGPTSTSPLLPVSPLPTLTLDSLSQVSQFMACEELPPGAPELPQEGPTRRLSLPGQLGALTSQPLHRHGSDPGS

For `O=C1N[C@@H](c2c(O)ccc(Cl)c2Cl)CCN1[C@@H]1CCNC1` (single isomer, unassigned) [Compound 9, 4-(2,3-dichloro-6-hydroxyphenyl)-1-[pyrrolidin-3-yl]-tetrahydropyrimidin-2(1H)-one], the IC50 [1] was greater than 10 µM and the IC50 [2, 3] was less than 1000 nM.
`C[C@@H]1C(=O)N(C2CNC2)C[C@@H]1c1c(O)ccc(Cl)c1Cl` (single isomer, unassigned; isomer 4) [Compound 90, 1-(azetidin-3-yl)-4-(2,3-dichloro-6-hydroxyphenyl)-3-methylpyrrolidin-2-one isomer 4] gave an IC50 [1] greater than 100 µM and an IC50 [2, 3] of less than 1000 nM.
`NCCCN1C[C@H](c2c(O)ccc(Cl)c2Cl)CC1=O` [Compound 43, (4S)-1-(3-aminopropyl)-4-(2,3-dichloro-6-hydroxyphenyl)pyrrolidin-2-one] gave an IC50 [1] greater than 30 µM and an IC50 [2, 3] of less than 10 nM.
In the case of `Nc1ccc(N2C[C@H](c3c(O)ccc(Cl)c3Cl)CC2=O)cn1` [Compound 61, (S)-1-(6-aminopyridin-3-yl)-4-(2,3-dichloro-6-hydroxyphenyl)pyrrolidin-2-one], the IC50 [1] is reported as greater than 10 µM and the IC50 [2, 3] is reported as less than 100 nM.
`O=C1N[C@@H](c2c(O)ccc(Cl)c2Cl)CN1C[C@@H](O)CO` [Compound 103, (4S)-4-(2,3-dichloro-6-hydroxyphenyl)-1-[(2R)-2,3-dihydroxypropyl]imidazolidin-2-one] gave an IC50 [1] greater than 100 µM and an IC50 [2, 3] of less than 1000 nM.
Work on `O=C1C[C@@H](c2c(O)ccc(Cl)c2Cl)CN1c1cnoc1` [Compound 72, (4S)-4-(2,3-dichloro-6-hydroxyphenyl)-1-(isoxazol-4-yl)pyrrolidin-2-one] yielded an IC50 [1] greater than 100 µM and an IC50 [2, 3] of less than 1000 nM.
For `CC1[C@H](c2c(O)ccc(Cl)c2Cl)CC(=O)N1C[C@H](O)CO` (stereo in doubt) [Compound 79, (4S,5S)-4-(2,3-dichloro-6-hydroxyphenyl)-1-[(2S)-2,3-dihydroxypropyl]-5-methylpyrrolidin-2-one], the IC50 [1] was greater than 30 µM and the IC50 [2, 3] was less than 100 nM.
In the case of `Cc1ncc(N2C[C@H](c3c(O)ccc(Cl)c3Cl)CC2=O)s1` [Compound 67, (S)-4-(2,3-dichloro-6-hydroxyphenyl)-1-(2-methylthiazol-5-yl)pyrrolidin-2-one], the IC50 [1] is reported as greater than 100 µM and the IC50 [2, 3] is reported as less than 100 nM.
`O=C1C[C@@H](c2c(O)ccc(Cl)c2Cl)CN1C1CN(CCO)C1` [Compound 16, (4S)-4-(2,3-dichloro-6-hydroxyphenyl)-1-[1-(2-hydroxyethyl)azetidin-3-yl]pyrrolidin-2-one] showed an IC50 [1] greater than 10 µM and an IC50 [2, 3] of less than 100 nM.
In the case of `O=C1N[C@H](c2c(O)ccc(Cl)c2Cl)CCN1[C@@H]1CCNC1` (single isomer, unassigned) [Compound 11, 4-(2,3-dichloro-6-hydroxyphenyl)-1-[pyrrolidin-3-yl]-tetrahydropyrimidin-2(1H)-one], the IC50 [1] is reported as greater than 10 µM and the IC50 [2, 3] is reported as less than 1000 nM.
`NCCN1C[C@H](c2c(O)ccc(Cl)c2Cl)CC1=O` [Compound 21, (4S)-1-(2-aminoethyl)-4-(2,3-dichloro-6-hydroxyphenyl)pyrrolidin-2-one] was tested, and the IC50 [1] was greater than 100 µM and the IC50 [2, 3] was less than 100 nM.
With `O=C1CC[C@H](c2c(O)ccc(Cl)c2Cl)CN1[C@H]1CCNC1` (single isomer, unassigned) [Compound 7, 5-(2,3-dichloro-6-hydroxyphenyl)-1-[pyrrolidin-3-yl]piperidin-2-one] the IC50 [1] was greater than 30 µM and the IC50 [2, 3] was less than 100 nM.
`Cn1ccc(N2C[C@H](c3c(O)ccc(Cl)c3Cl)CC2=O)cc1=O` [Compound 68, (S)-4-(4-(2,3-dichloro-6-hydroxyphenyl)-2-oxopyrrolidin-1-yl)-1-methylpyridin-2(1H)-one] showed an IC50 [1] greater than 100 µM and an IC50 [2, 3] of less than 1000 nM.
In the case of `O=C1C[C@@H](c2c(O)ccc(Cl)c2Cl)CN1CC1(CO)CNC1` [Compound 46, (S)-4-(2,3-dichloro-6-hydroxyphenyl)-1-((3-(hydroxymethyl)azetidin-3-yl)methyl)pyrrolidin-2-one], the IC50 [1] is reported as greater than 100 µM and the IC50 [2, 3] is reported as less than 100 nM.
In the case of `NC(=O)CCN1C[C@H](c2c(O)ccc(Cl)c2Cl)CC1=O` [Compound 40, (S)-3-(4-(2,3-dichloro-6-hydroxyphenyl)-2-oxopyrrolidin-1-yl)propanamide], the IC50 [1] is reported as greater than 100 µM and the IC50 [2, 3] is reported as less than 100 nM.
Compound `NC[C@@H](O)CN1C[C@H](c2c(O)ccc(Cl)c2Cl)CC1=O` (single isomer, unassigned; isomer 1) [Compound 51] has an IC50 [1] greater than 100 µM and an IC50 [2, 3] of less than 100 nM.
In the case of `Cn1cc(N2C[C@H](c3c(O)ccc(Cl)c3Cl)CC2=O)nn1` [Compound 65, (S)-4-(2,3-dichloro-6-hydroxyphenyl)-1-(1-methyl-1H-1,2,3-triazol-4-yl)pyrrolidin-2-one], the IC50 [1] is reported as greater than 10 µM and the IC50 [2, 3] is reported as less than 1000 nM.
Compound `NCC(O)CN1C[C@H](c2c(O)ccc(Cl)c2Cl)CC1=O` (single isomer, unassigned; isomer 2) [Compound 52] has an IC50 [1] greater than 100 µM and an IC50 [2, 3] of less than 100 nM.
`CC(O)(CO)CN1C[C@H](c2c(O)ccc(Cl)c2Cl)CC1=O` (stereo partly drawn) [Compound 55, (4S)-4-(2,3-dichloro-6-hydroxyphenyl)-1-(2,3-dihydroxy-2-methylpropyl)pyrrolidin-2-one] was tested, and the IC50 [1] was greater than 100 µM and the IC50 [2, 3] was less than 1000 nM.
In the case of `O=C1C[C@@H](c2c(O)ccc(Cl)c2Cl)CN1[C@H]1CCNC1` (single isomer, unassigned) [Compound 12, 4-(2,3-dichloro-6-hydroxyphenyl)-[1,3-bipyrrolidin]-2-one], the IC50 [1] is reported as greater than 30 µM and the IC50 [2, 3] is reported as less than 1000 nM.
`O=C1C[C@@H](c2c(O)ccc(Cl)c2Cl)CN1CCCO` [Compound 35, (4S)-4-(2,3-dichloro-6-hydroxyphenyl)-1-(3-hydroxypropyl)pyrrolidin-2-one] was tested, and the IC50 [1] was greater than 30 µM and the IC50 [2, 3] was less than 10 nM.
Work on `NC(=O)CN1C[C@H](c2c(O)ccc(Cl)c2Cl)CC1=O` [Compound 34, 2-[(4S)-4-(2,3-dichloro-6-hydroxyphenyl)-2-oxopyrrolidin-1-yl]acetamide] yielded an IC50 [1] greater than 100 µM and an IC50 ([2]; Kv1.3 IC50, CHO-K1 cells stably expressing Kv1.3) of less than 100 nM.
For `O=C1C[C@@H](c2c(O)ccc(Cl)c2Cl)CN1C[C@H](O)CO` [Compound 30, (4S)-4-(2,3-dichloro-6-hydroxyphenyl)-1-[(2S)-2,3-dihydroxypropyl]pyrrolidin-2-one], the IC50 [1] was greater than 100 µM and the IC50 [2, 3] was less than 100 nM.
With `O=C1C[C@@H](c2c(O)ccc(Cl)c2Cl)CN1c1ccncc1` [Compound 64, (S)-4-(2,3-dichloro-6-hydroxyphenyl)-1-(pyridin-4-yl)pyrrolidin-2-one] the IC50 [1] was greater than 10 µM and the IC50 [2, 3] was less than 100 nM.
For `O=C1N[C@@H](c2c(O)ccc(Cl)c2Cl)CN1C[C@H](O)CO` [Compound 102, (4S)-4-(2,3-dichloro-6-hydroxyphenyl)-1-[(2S)-2,3-dihydroxypropyl]imidazolidin-2-one], the IC50 [1] was greater than 100 µM and the IC50 [2, 3] was less than 100 nM.
For `O=C1O[C@@H](c2c(O)ccc(Cl)c2Cl)CN1CCO` (single isomer, unassigned; isomer 2) [Compound 94, 5-(2,3-dichloro-6-hydroxyphenyl)-3-(2-hydroxyethyl)oxazolidin-2-one isomer 2], the IC50 [1] was greater than 100 µM and the IC50 [2, 3] was less than 1000 nM.
`O=C1C[C@H](c2c(O)ccc(Cl)c2Cl)CN1[C@H]1CCNC1` (single isomer, unassigned) [Compound 15, 4-(2,3-dichloro-6-hydroxyphenyl)-[1,3-bipyrrolidin]-2-one] showed an IC50 [1] greater than 30 µM and an IC50 [2, 3] of less than 100 nM.
`O=C1C[C@@H](c2c(O)ccc(Cl)c2Cl)CN1C[C@@H](O)CO` [Compound 33, (4S)-4-(2,3-dichloro-6-hydroxyphenyl)-1-[(2R)-2,3-dihydroxypropyl]pyrrolidin-2-one] gave an IC50 [1] greater than 100 µM and an IC50 [2, 3] of less than 100 nM.
